Consider three compounds from patent EP4644383A1 (Jiangsu Yahong Meditech Co., Ltd., priority 2022, dated 2024).

The target in one test is T1, FGFR3 (Homo sapiens, UniProt P22607).
T1 construct: FGFR3's cytoplasmic domain [436-806 (terminal) amino acids]; purchased Carna 08-135
The test can be described thus: FGFR3 kinase activity inhibition assay (LanthaScreen TR-FRET). To be noted: for IC50: FGFR3 kinase, TR-FRET, read-out: IC50 (nM) FGFR3; for Selectivity (X) FGFR1/FGFR3: ratio of IC50 FGFR1/FGFR3, selectivity towards FGFR3. It is filed as biochemical. A digest of the protocol:
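Read-out is TR-FRET, with the 520 nm/495 nm emission ratio normalised to DMSO (max) and enzyme-free (min) controls. Enzyme was the FGFR3 cytoplasmic domain, residues 436-806. EDTA (10 mM) stopped the reaction, followed by 60 min at 22 °C before reading.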
For orientation: In TR-FRET formats the signal depends on donor and acceptor labels being close together.

In another test the test system is Ba/F3-BCR-FGFR1 cells. The test can be described thus: Inhibition of proliferation activity of Ba/F3-BCR-FGFR1 cells (CellTiter-Glo). Format: cell-based. Conditions: Ba/F3-BCR-FGFR1 cells, 72 hours, CTG; read-out: IC50 (nM) Ba/F3-BCR-FGFR1. How it is done:
(§1) The present experiment used CellTiter-Glo® Luminescent Cell Viability Assay (Promega: G7573) kit, which was a homogeneous cell viability detection method and determined the cell viability of cultured cells by quantifying ATP. • ① Ba/F3-BCR-FGFR1 or Ba/F3-FGFR3-BAIAP2L1 cells were cultured in 1640 complete medium (Gibco: 11879020) (10% FBS (Gibco: 10091-148)+1% Pen Strep (Gibco: 15140122)) under the condition of 37°C and 5% CO2. • (2) The cells in logarithmic growth phase were harvested and counted using a […]. The trypan blue exclusion method was used to detect cell viability to ensure the cell viability was above 90%. • ③ The cell density was adjusted using 1640 complete medium, and then, the cells were seeded into a 96-well cell culture plate at 90 µL/well with a total of 2000 cells. • ④ A 10-fold drug solution was prepared starting from a maximum drug concentration of 10 µM and 4-fold serially diluted into10 concentrations. Then, 10 µL of each of the serially diluted compounds was transferred to the corresponding experimental wells of a 96-well cell plate, with two replicates for each drug concentration. • ⑤ The 96-well plate with the cells that had been treated with the drugs was placed under the condition of 37°C and 5% CO2 to be further cultured for 72 hours, and then analyzed by CTG. • ⑥ The CTG reagent was melted and the cell plate was equilibrated to room temperature for 30 minutes. • ⑦ 50 µL of the CTG solution was added to each well. • ⑧ The cell plate was shaken on an orbital shaker for 5 minutes to lyse the cells. • ⑨ The cell plate was placed at room temperature for 20 minutes to stabilize the luminescence signal. The luminescence values were read to collect the data. • ⑩ The data were analyzed using XLFit excel plugin version 5.5.0.5, and fitted with non-linear S-curve regression to obtain the dose-response curves and thus calculate the IC50 values. Y = Bottom + (Top-Bottom)/((1+(IC50/X))^(∧) HillSlope [formula]
(§2) "Top" refers to the maximum response, "Bottom" refers to the minimum response, and "HillSlope" refers to the slope of the curve.
(§3) "Max" represents the average value of the cell control+DMSO, and "Min" represents the average value of the medium control+DMSO.

The subject of test [1] is Ba/F3-FGFR3-BAIAP2L1 cells. The test can be described thus: Inhibition of proliferation activity of Ba/F3-FGFR3-BAIAP2L1 cells (CellTiter-Glo). To be noted: for IC50: Ba/F3-FGFR3-BAIAP2L1 cells, 72 hours, CTG, read-out: IC50 (nM) Ba/F3-FGFR3-BAIAP2L1; for Selectivity (X) FGFR1/FGFR3: ratio of IC50 Ba/F3-BCR-FGFR1 to IC50 Ba/F3-FGFR3-BAIAP2L1. It is filed as cell-based. How it is done: as §1, with “Then, 10 µL of each of the serially diluted compounds was transferred to the corresponding experimental wells of a 96-well cell plate, with two replicates for each drug concentration. • ⑤ The 96-well plate with the cells that had been treated with the drugs was placed under the condition of 37°C and 5% CO2 to be further cultured for 72 hours, and then analyzed by CTG. • ⑥ The CTG reagent was melted and the cell plate was equilibrated to room temperature for 30 minutes. • ⑦ 50 µL of the CTG solution was added to each well. • ⑧ The cell plate was shaken on an orbital shaker for 5 minutes to lyse the cells. • ⑨ The cell plate was placed at room temperature for 20 minutes to stabilize the luminescence signal.” left out
as §2, §3
Background: ATP-based viability assays read luminescence as a measure of living cells.

The target in another test is T2, FGFR1 (Homo sapiens, UniProt P11362).
T2 construct: cytoplasmic domain [398-822 (terminal) amino acids]; purchased Carna 08-133
The test can be described thus: FGFR1 kinase activity inhibition assay (LanthaScreen TR-FRET). Format: biochemical. To be noted: FGFR1 kinase, TR-FRET; read-out: IC50 (nM) FGFR1. A digest of the protocol: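 Emission ratio 520 nm/495 nm by TR-FRET after stopping reaction with 10 mM EDTA and 60 min incubation at 22°C. Inhibition normalized between no-enzyme (min) and DMSO (max) controls, then fitted to a four-parameter curve (Top, Bottom, HillSlope).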

T2 sequence (P11362 398-822): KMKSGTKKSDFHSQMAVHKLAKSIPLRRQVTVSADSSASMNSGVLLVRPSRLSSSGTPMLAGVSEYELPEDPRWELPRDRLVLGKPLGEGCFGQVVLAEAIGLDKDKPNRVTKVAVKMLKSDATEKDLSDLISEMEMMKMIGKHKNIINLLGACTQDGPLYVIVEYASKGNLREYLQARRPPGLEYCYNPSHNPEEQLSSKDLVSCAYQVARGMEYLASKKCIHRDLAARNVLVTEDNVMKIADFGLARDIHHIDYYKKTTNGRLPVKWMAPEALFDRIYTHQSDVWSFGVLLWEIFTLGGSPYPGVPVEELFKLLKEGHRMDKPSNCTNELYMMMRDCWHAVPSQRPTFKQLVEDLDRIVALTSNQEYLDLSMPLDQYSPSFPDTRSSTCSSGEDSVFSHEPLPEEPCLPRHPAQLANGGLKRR
T1 sequence (P22607 436-806): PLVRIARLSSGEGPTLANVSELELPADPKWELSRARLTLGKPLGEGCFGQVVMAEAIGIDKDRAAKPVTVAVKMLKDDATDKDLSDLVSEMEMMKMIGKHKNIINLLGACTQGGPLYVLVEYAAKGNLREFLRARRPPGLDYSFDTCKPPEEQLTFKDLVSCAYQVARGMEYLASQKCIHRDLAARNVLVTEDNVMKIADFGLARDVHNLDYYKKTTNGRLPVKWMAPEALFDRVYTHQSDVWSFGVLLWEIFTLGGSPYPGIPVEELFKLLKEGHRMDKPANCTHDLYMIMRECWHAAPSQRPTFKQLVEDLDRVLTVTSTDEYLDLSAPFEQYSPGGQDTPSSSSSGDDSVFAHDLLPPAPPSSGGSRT

With `CC(Oc1ccc2[nH]nc(-c3cnn(C)c3)c2c1)c1cccc2ncnn12` (stereo not drawn) [Example 96, 5-(1-((3-(1-methyl-1H-pyrazol-4-yl)-1H-indazol-5-yl)oxy)ethyl)-[1,2,4]triazolo[1,5-a]pyridine], the IC50 is 1 to 10 nM at FGFR3, 430 nM in the test on Ba/F3-BCR-FGFR1 cells, 11.8 nM in test [1] and 10 to 100 nM on FGFR1. Further, the “Selectivity (X) FGFR1/FGFR3” value at FGFR3 is “A (A represents 1 ≤ multiple X<20)”; in test [1], 37 X.
As for `CC(Oc1ccc2[nH]nc(-c3cnn(C)c3)c2c1)c1cccc2ncc(F)cc12` (stereo not drawn) [Example 98, 3-fluoro-5-(1-((3-(1-methyl-1H-pyrazol-4-yl)-1H-indazol-5-yl)oxy)ethyl)qu inoline], the IC50 at FGFR3 was 10 to 100 nM; in the test on Ba/F3-BCR-FGFR1 cells, 2140 nM; in test [1], 47.6 nM; on FGFR1 it was more than 100 nM. The “Selectivity (X) FGFR1/FGFR3” value on FGFR3 is reported as “A (A represents 1 ≤ multiple X<20)”; in test [1] it was 45 X.
For the compound `CC(Oc1ccc2[nH]nc(-c3cnn(C)c3)c2c1)c1cccc2ncncc12` (stereo not drawn) [Example 99, 5-(1-((3-(1-methyl-1H-pyrazol-4-yl)-1H-indazol-5-yl)oxy)ethyl)qu inazoline], the IC50 was 10 to 100 nM on FGFR3, 1760 nM in the test on Ba/F3-BCR-FGFR1 cells, 41.8 nM in test [1] and more than 100 nM on FGFR1. For the same compound, the “Selectivity (X) FGFR1/FGFR3” value on FGFR3 was “A (A represents 1 ≤ multiple X<20)”; in test [1] it was 42 X.
